ChEMBL document CHEMBL4152189, “Incorporation of nitric oxide donor into 1,3-dioxyxanthones leads to synergistic anticancer activity” (Eur J Med Chem, 2018)

Experiments:
[1] = tested on: HepG2; assay: Cell cycle arrest in human HepG2 cells assessed as accumulation at S phase at 0.66 uM after 24 hrs by propidium iodide/RNAse staining-based flow cytometric analysis; format: functional
[2] = tested on: L02; assay: Induction of NO generation in human HL-7702 cells assessed as nitrite levels at 0.66 uM after 60 hrs by Griess assay (reference value: 11.8 +/- 1.3 uM); format: functional
[3] = tested on: L02; assay: Growth inhibition of human HL-7702 cells after 24 hrs by MTT assay; format: cell-based; conditions: L02, 24 h
[4] = tested on: HepG2; assay: Induction of NO generation in human HepG2 cells assessed as nitrite levels at 0.33 uM after 24 hrs by Griess assay (reference value: 12.8 +/- 1.7 uM); format: functional
[5] = tested on: HepG2; assay: Induction of NO generation in human HepG2 cells assessed as nitrite levels at 0.33 uM after 60 hrs by Griess assay (reference value: 12.8 +/- 1.5 uM); format: functional
[6] = tested on: HepG2; assay: Induction of NO generation in human HepG2 cells assessed as nitrite levels at 0.66 uM after 12 hrs by Griess assay (reference value: 12.7 +/- 1.8 uM); format: functional
[7] = tested on: HepG2; assay: Induction of NO generation in human HepG2 cells assessed as nitrite levels at 0.66 uM after 6 hrs by Griess assay (reference value: 12.6 +/- 1.1 uM); format: functional
[8] = tested on: HepG2; assay: Induction of NO generation in human HepG2 cells assessed as nitrite levels at 0.16 uM after 12 hrs by Griess assay (reference value: 12.7 +/- 1.8 uM); format: functional
[9] = tested on: HepG2; assay: Induction of NO generation in human HepG2 cells assessed as nitrite levels at 0.66 uM after 24 hrs by Griess assay (reference value: 12.8 +/- 1.7 uM); format: functional
[10] = tested on: L02; assay: Induction of NO generation in human HL-7702 cells assessed as nitrite levels at 0.66 uM after 3 hrs by Griess assay (reference value: 11.6 +/- 1.2 uM); format: functional
[11] = tested on: HepG2; assay: Induction of NO generation in human HepG2 cells assessed as nitrite levels at 0.16 uM after 48 hrs by Griess assay (reference value: 12.8 +/- 1.7 uM); format: functional
[12] = tested on: HepG2; assay: Cell cycle arrest in human HepG2 cells assessed as accumulation at S phase after 24 hrs by propidium iodide/RNAse staining-based flow cytometric analysis; format: functional
[13] = tested on: HepG2; assay: Induction of NO generation in human HepG2 cells assessed as nitrite levels at 0.16 uM after 3 hrs by Griess assay (reference value: 12.8 +/- 1.5 uM); format: functional
[14] = tested on: HepG2; assay: Induction of apoptosis in human HepG2 cells at 0.66 uM after 24 hrs by Annexin-V/propidium iodide staining-based flow cytometric analysis; format: functional
[15] = tested on: L02; assay: Induction of NO generation in human HL-7702 cells assessed as nitrite levels at 0.66 uM after 1 hr by Griess assay (reference value: 11.6 +/- 1.1 uM); format: functional
[16] = tested on: HepG2; assay: Induction of NO generation in human HepG2 cells assessed as nitrite levels at 0.16 uM after 60 hrs by Griess assay (reference value: 12.8 +/- 1.5 uM); format: functional

COc1cccc2oc3cc(OCCCCCO[N+](=O)[O-])cc(O)c3c(=O)c12
Activity [1]: 56.2%
Activity [2]: 14.5 µM
IC50 [3]: 377 µM
Activity [4]: 35.1 µM
Activity [5]: 18.2 µM
Activity [6]: 36 µM
Activity [7]: 31.4 µM
Activity [8]: 25.7 µM
Activity [9]: 39.1 µM
Activity [10]: 15.1 µM
Activity [11]: 21.3 µM
Activity [12]: Dose-dependent effect
Activity [13]: 18.8 µM
Activity [14]: 86.8%
Activity [15]: 14.2 µM
Activity [16]: 15.7 µM
